Test [1] addresses T1, B1R receptor of the rat (bradykinin 1 receptor) (Rattus norvegicus, UniProt P97583).
T1 construct: host or cells: CHO K1 cells (rB1R cells)
T1 sequence (P97583 1-337): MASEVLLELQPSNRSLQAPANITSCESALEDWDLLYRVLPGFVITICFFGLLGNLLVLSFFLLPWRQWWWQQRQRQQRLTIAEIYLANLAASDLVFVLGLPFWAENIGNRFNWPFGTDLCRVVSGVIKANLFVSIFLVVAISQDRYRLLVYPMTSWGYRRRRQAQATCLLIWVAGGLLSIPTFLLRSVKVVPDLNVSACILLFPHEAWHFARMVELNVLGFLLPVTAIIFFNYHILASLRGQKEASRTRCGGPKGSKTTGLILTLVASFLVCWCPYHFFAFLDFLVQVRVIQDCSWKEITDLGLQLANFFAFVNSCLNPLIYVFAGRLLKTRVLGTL
Description: FLIPR Ca2+ assay (Fluo-4) on CHO K1 cells stably transfected with the B1R gene of the rat; % activation and % inhibition at 10 μM. The class given is cell-based. The conditions noted are these: CHO-K1, test substance 10 μM; CHO K1 rB1R cells; Ca2+ inflow after 100 nM Des-Arg9-bradykinin; read-out: B1R antagonism, rat [10 μM] % inhibition. An outline of the steps: (§1)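 CHO K1 cells stably expressing human or rat B1R, Fluo-4 loaded, read by FLIPR (peak fluorescence). Compound at 10 µM first gives % activation versus agonist; after 10 min, agonist (human: 0.5 nM Lys-Des-Arg9-bradykinin; rat: 100 nM Des-Arg9-bradykinin) gives % inhibition relative to maximal inhibition.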

In test [2] the target is T2, human B1R receptor (bradykinin 1 receptor) (Homo sapiens, UniProt P46663).
T2 construct: host or cells: CHO K1 cells (hB1R cells)
T2 sequence (P46663 1-353): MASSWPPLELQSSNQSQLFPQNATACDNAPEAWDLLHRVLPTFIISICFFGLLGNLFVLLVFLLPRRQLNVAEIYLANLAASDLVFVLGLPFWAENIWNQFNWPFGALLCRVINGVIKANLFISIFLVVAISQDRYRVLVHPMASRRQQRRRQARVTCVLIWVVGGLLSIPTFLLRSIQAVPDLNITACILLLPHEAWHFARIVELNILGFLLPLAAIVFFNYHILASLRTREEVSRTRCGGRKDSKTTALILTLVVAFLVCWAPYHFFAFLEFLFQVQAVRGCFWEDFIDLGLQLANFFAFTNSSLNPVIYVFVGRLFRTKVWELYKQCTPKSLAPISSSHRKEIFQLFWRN
The test can be described thus: FLIPR Ca2+ assay (Fluo-4) on CHO K1 cells stably transfected with the human B1R gene; % activation and % inhibition at 10 μM. The class given is cell-based. To be noted: CHO-K1, test substance 10 μM; CHO K1 hB1R cells; Ca2+ inflow after 0.5 nM Lys-Des-Arg9-bradykinin; read-out: B1R antagonism, human [10 μM] % inhibition. The essentials: as §1

The structures appear in SMILES notation. Structures can show the parent of a compound that is named as a salt.

In general, inhibition refers to the relative decrease from the control value, in per cent. As to `O=C(COCC1CCCCN1S(=O)(=O)c1cc(Cl)sc1Cl)N1CCC(O)(c2cccnc2)CC1` (centres unmarked) [Example 229, 2-((1-(2,5-dichlorothiophen-3-ylsulfonyl)piperidin-2-yl)methoxy)-1-(4-hydroxy-4-(pyridin-3-yl)piperidin-1-yl)ethanone], the values for the inhibition at 10 µM in test [1] and in test [2] were 100% and 65.5%, respectively.

For the compound `COc1cc(C)c(S(=O)(=O)N(CCOCC(=O)N2CCC(O)(c3cccs3)CC2)CC(C)C)c(C)c1C` [Example 269, N-(2-(2-(4-hydroxy-4-(thiophen-2-yl)piperidin-1-yl)-2-oxoethoxy)ethyl)-N-isobutyl-4-methoxy-2,3,6-trimethylphenylsulfonamide], the figures for the inhibition at 10 µM in test [1] and in test [2] were 99.1% and 98.4%, respectively.

Regarding `COc1cc(C)c(S(=O)(=O)N2CCCCC2COCC(=O)N2CCC(O)(c3ccc(Cl)cc3)CC2)c(C)c1` (centres unmarked) [Example 242, 1-(4-(4-chlorophenyl)-4-hydroxypiperidin-1-yl)-2-((1-(4-methoxy-2,6-dimethylphenylsulfonyl)piperidin-2-yl)methoxy)ethanone], the inhibition at 10 µM in test [1] was determined as 98.4%; in test [2] it was 101%.

For the compound `CN(CCOCC(=O)N1CCC(O)(c2ccc(Cl)c(C(F)(F)F)c2)CC1)S(=O)(=O)c1cc(Cl)sc1Cl` [Example 263, 2,5-dichloro-N-(2-(2-(4-(4-chloro-3-(trifluoromethyl)phenyl)-4-hydroxypiperidin-1-yl)-2-oxoethoxy)ethyl)-N-methylthiophene-3-sulfonamide], the inhibition at 10 µM in test [1] was 70.5%; in test [2], 42.9%.

Take `O=C(COCC1CCCN1S(=O)(=O)c1c(Cl)cc(C(F)(F)F)cc1Cl)N1CCC(O)(Cc2ccccc2)CC1` (centres unmarked) [Example 169, 1-(4-benzyl-4-hydroxypiperidin-1-yl)-2-((1-(2,6-dichloro-4-(trifluoromethyl)phenylsulfonyl)pyrrolidin-2-yl)methoxy)ethanone]: the inhibition at 10 µM in test [1] came out at 79.4%; in test [2], 14.6%.

`O=C(COC1CCCN(S(=O)(=O)c2c(Cl)cc(Cl)cc2Cl)C1)N1CCC(O)(Cc2ccccc2)CC1` (centres unmarked) [Example 249, 1-(4-benzyl-4-hydroxypiperidin-1-yl)-2-(1-(2,4,6-trichlorophenylsulfonyl)piperidin-3-yloxy)ethanone]: the inhibition at 10 µM in test [1] is 87.3%; in test [2] it was 70.8%.

Consider `O=C(COCC1CCCCN1S(=O)(=O)c1ccccc1C(F)(F)F)N1CCC(O)(Cc2ccccc2)CC1` (centres unmarked) [Example 176, 1-(4-benzyl-4-hydroxypiperidin-1-yl)-2-((1-(2-(trifluoromethyl)phenylsulfonyl)piperidin-2-yl)methoxy)ethanone], for which the inhibition at 10 µM in test [1] was found to be 102%; in test [2] it was 91%.

Consider `O=C(COCC1CCCCN1S(=O)(=O)c1ccccc1C(F)(F)F)N1CCC(O)(c2ccccc2)CC1` (centres unmarked) [Example 175, 1-(4-hydroxy-4-phenylpiperidin-1-yl)-2-((1-(2-(trifluoromethyl)phenylsulfonyl)piperidin-2-yl)methoxy)ethanone], for which the values for the inhibition at 10 µM in test [1] and in test [2] were 104% and 86%, respectively.

Consider `COc1cc(C)c(S(=O)(=O)N2CCC(OCC(=O)N3CCC(O)(Cc4ccccc4)CC3)C2)c(C)c1C` (centres unmarked) [Example 7, 1-(4-benzyl-4-hydroxy-piperidin-1-yl)-2-[1-(4-methoxy-2,3,6-trimethyl-phenylsulfonyl)-pyrrolidin-3-yloxy]-ethanone], for which the inhibition at 10 µM came out at 35.2% in test [1] and 99.8% in test [2].

On to `Cc1cc(S(=O)(=O)N(C)CCOCC(=O)N2CCC(O)(c3cccc(C(F)(F)F)c3)CC2)c(C)s1` [Example 258, N-(2-(2-(4-hydroxy-4-(3-(trifluoromethyl)phenyl)piperidin-1-yl)-2-oxoethoxy)ethyl)-N,2,5-trimethylthiophene-3-sulfonamide], for which the figures for the inhibition at 10 µM in test [1] and in test [2] were 96.1% and 71.5%, respectively.

Take `O=C(COC1CCN(S(=O)(=O)c2ccc(F)cc2)C1)N1CCC(O)(c2ccccn2)CC1` (centres unmarked) [Example 58, 2-[1-(4-fluoro-phenylsulfonyl)-pyrrolidin-3-yloxy]-1-(4′-hydroxy-3′,4′,5′,6′-tetrahydro-2′H-[2,4′]bipyridinyl-1′-yl)-ethanone]: the figures for the inhibition at 10 µM in test [1] and in test [2] were -7.05% and -23.8%, respectively.

As to `O=C(COCC1CCCN1S(=O)(=O)c1c(Cl)cccc1Cl)N1CCC(O)(c2cccnc2)CC1` (centres unmarked) [Example 197, 2-((1-(2,6-dichlorophenylsulfonyl)pyrrolidin-2-yl)methoxy)-1-(4-hydroxy-4-(pyridin-3-yl)piperidin-1-yl)ethanone], the inhibition at 10 µM in test [1] is 96.4%; in test [2] it was 103%.

Regarding `CN(C1CCCCC1OCC(=O)N1CCC(O)(Cc2ccccc2)CC1)S(=O)(=O)c1ccc(Cl)c(Cl)c1` (centres unmarked) [Example 43, N-{2-[2-(4-benzyl-4-hydroxy-piperidin-1-yl)-2-oxo-ethoxy]-cyclohexyl}-3,4-dichloro-N-methyl-phenylsulfonamide], the inhibition at 10 µM in test [1] is 33.9%; in test [2], -1.29%.

In the case of `COc1cc(C)c(S(=O)(=O)N2CCCC2COCC(=O)N2CCC(O)(c3ccc(Br)cc3)CC2)c(C)c1` (centres unmarked) [Example 214, 1-(4-(4-bromophenyl)-4-hydroxypiperidin-1-yl)-2-((1-(4-methoxy-2,6-dimethylphenylsulfonyl)pyrrolidin-2-yl)methoxy)ethanone], the inhibition at 10 µM amounted to 101% in test [1] and 97.9% in test [2].

Regarding `COc1cc(C)c(S(=O)(=O)N2CCCCC2COCC(=O)N2CCC(O)(c3cccnc3)CC2)c(C)c1` (centres unmarked) [Example 127, 1-(4-hydroxy-4-(pyridin-3-yl)piperidin-1-yl)-2-((1-(4-methoxy-2,6-dimethylphenylsulfonyl)piperidin-2-yl)methoxy)ethanone], the inhibition at 10 µM in test [1] worked out at 101%; in test [2], 104%.

`COc1cc(C)c(S(=O)(=O)N(C)CCOCC(=O)N2CCC(O)(c3ccccc3)CC2)c(C)c1` [Example 137, N-(2-(2-(4-hydroxy-4-phenylpiperidin-1-yl)-2-oxoethoxy)ethyl)-4-methoxy-N,2,6-trimethylphenylsulfonamide]: the inhibition at 10 µM is 99.3% in test [1] and 101% in test [2].

With `COc1ccc(S(=O)(=O)N(C)CCOCC(=O)N2CCC(O)(c3ccccn3)CC2)cc1` [Example 42, N-{2-[2-(4′-hydroxy-3′,4′,5′,6′-tetrahydro-2′H-[2,4′]bipyridinyl-1′-yl)-2-oxo-ethoxy]-ethyl}-4-methoxy-N-methyl-phenylsulfonamide], the results for the inhibition at 10 µM in test [1] and in test [2] were -38.1% and 0.67%, respectively.

As for `COc1cc(C)c(S(=O)(=O)N(C)CCOCC(=O)N2CCC(O)(Cc3cccnc3)CC2)c(C)c1` [Example 279, N-(2-(2-(4-hydroxy-4-(pyridin-3-ylmethyl)piperidin-1-yl)-2-oxoethoxy)ethyl)-4-methoxy-N,2,6-trimethylphenylsulfonamide hydrochloride], the inhibition at 10 µM in test [1] came out at 105%; in test [2], 103%.

Take `O=C(COCC1Cc2ccccc2CN1S(=O)(=O)c1ccccc1)N1CCC(O)(Cc2ccccc2)CC1` (centres unmarked) [Example 77, 2-(2-phenylsulfonyl-1,2,3,4-tetrahydro-isoquinolin-3-ylmethoxy)-1-(4-benzyl-4-hydroxy-piperidin-1-yl)-ethanone]: the inhibition at 10 µM in test [1] was -0.12%; in test [2], 13.3%.

Take `O=C(COC1CCCCC1N(Cc1ccccc1)S(=O)(=O)c1ccc(Cl)c(Cl)c1)N1CCC(O)(Cc2ccccc2)CC1` (centres unmarked) [Example 84, N-benzyl-N-{2-[2-(4-benzyl-4-hydroxy-piperidin-1-yl)-2-oxo-ethoxy]-cyclohexyl}-3,4-dichloro-phenylsulfonamide]: the figures for the inhibition at 10 µM in test [1] and in test [2] were -9.47% and -0.61%, respectively.

`COc1ccc(S(=O)(=O)N2CCC(OCC(=O)N3CCC(O)(c4ccccn4)CC3)C2)cc1OC` (centres unmarked) [Example 52, 2-[1-(3,4-dimethoxy-phenylsulfonyl)-pyrrolidin-3-yloxy]-1-(4′-hydroxy-3′,4′,5′,6′-tetrahydro-2′H-[2,4′]bipyridinyl-1′-yl)-ethanone]: the inhibition at 10 µM in test [1] is 11.9%; in test [2], -10%.

As to `COc1cc(C)c(S(=O)(=O)N(C)CCOCC(=O)N2CCC(O)(c3cccc(F)c3)CC2)c(C)c1` [Example 141, N-(2-(2-(4-(3-fluorophenyl)-4-hydroxypiperidin-1-yl)-2-oxoethoxy)ethyl)-4-methoxy-N,2,6-trimethylphenylsulfonamide], the inhibition at 10 µM in test [1] came out at 100%; in test [2], 104%.
